Experiments:
IL33 expression = assay: Western blot of IL33 expression in PDAC cell lines treated with MEK and PI3K/AKT inhibitors; format: cell-based, mouse; details: cell lines derived from KPC tumor model of PDAC; inhibitor treatment for 24 hrs
Protocol: Results are shown as mean ±SEM. P values were calculated using Student t test. Chi-square test and spearman's correlation analysis was done for human PDAC TMA for statistical significance.
The above in silico findings were further validated by western blot analysis showing a complete loss of IL33 expression upon abolishing Kras* signaling (FIG. 3F-G, FIG. 4A-B). We further validated this finding using cell lines derived from KPC tumor model of PDAC (FIG. 1A).
Primary mouse cell lines were established in the laboratory (PJ-B6-4291, PJ-B6-4298) or gift from Dr. Ronald DePinho (AK-B6, AK14838, AK192, HY19636, HY15559) as described previously and were routinely cultured in RPMI 1640 (Invitrogen) 10% FBS (Invitrogen), 100 U/ml penicillin and 100 U/ml streptomycin. For inducible Kras derived cell lines, 1 μg/ml of doxycycline was directly added to the media. The cell lines were mycoplasma free, based on tests done monthly in the laboratory using Lonza's MycoAlert Mycoplasma Detection Kit assays with confirmatory tests by PCR-based assays.
Medium was removed and the cells were washed twice in ice-cold phosphate-buffered saline (PBS), scraped and collected as pellets after centrifugation at 1700 g for 5 min. The pelleted cells were incubated in radio immune precipitation assay (RIPA) buffer with proteinase and phosphatase inhibitors for 15 min. Lysates were then collected and centrifuged at 12000 rpm for 15 min at 4° C. Protein concentrations were measured using the DC Protein Assay Kit (Biorad, Cat. No. 5000111). SDS-PAGE and immunoblotting were performed as described previously in pre-cast bis-Tris 4-20% gradient gels (Invitrogen). The following antibodies were used: IL33 (R & D system AF3626); pAKT-S473 (CST 9271); pERK-p44/42 (CST 4370) and […] (Sigma-Aldrich, A2228).

[1] = system: orthotopically transplanted PDAC tumors; assay: Antifungal (fungal depletion) treatment of mice with orthotopically transplanted PDAC tumors: tumor burden and survival; format: in vivo, C57BL/6 mice
Protocol: (§1) Followed by 3 weeks of amphotericin (0.5ug/ml) treatment in drinking water. After 3 weeks, PDAC cells were orthotopically transplanted and tumor progression studies were performed after 28-35 days. […] Red circles define the tumor boundaries. […] Followed by 3 weeks of amphotericin (0.5ug/ml) treatment in drinking water. After 3 weeks fungus (Alternaria alternata and Malassazia globose, 10^8 CFU/ml) was transplanted in mice. After 7 days of fungus transplantation, PDAC cells were orthotopically transplanted and tumor progression studies were performed after 28-35 days. […] Also, shown are the 18S rRNA sequencing in stool samples. Positive control-Alternaria is a sample of pure Alternaria culture. […] Scale bar 100 μm, unless indicated otherwise. Data are combined from three independent experiments and are presented as mean ±SEM, P values were calculated using Student t-test. ns, no significance.
For all experiments, C57BL/6J (Stock 000664) mice, aged 4-6 weeks were obtained from Jackson Laboratory unless otherwise mentioned. For orthotopic pancreas transplantation, mice were anaesthetized using isoflurane. A 2×2-mm portion of the left abdomen was shaved to facilitate transplantation. An incision was made in the left abdomen and the pancreas was gently exposed along with the spleen. Luciferase-expressing cells were slowly injected into the tail of the pancreas using a Hamilton syringe. Twenty microliters of cells (5×10^5) mixed with 20 μl Matrigel were injected. […]
Live in vivo imaging was performed at the Animal Imaging Facility at Roswell Park Comprehensive Cancer Center. […] Temperature and respiration were regulated using an MR-compatible small animal monitoring system (Model 1250, SAII, Stony Brook, NY.) Following scout scans, tumor burden was determined using multislice, fast spin echo scans in the axial and coronal planes. […] Tumor volumes were calculated by manual segmentation and voxel summation using commercially available, medical image processing software (Analyze 10.0, AnalyzeDirect, Overland Park, KS). […]

IL33 = assay: IHC and IF of IL33 in fungal-depleted PDAC tumors; format: in vivo, mouse; details: fungal-depleted tumors after amphotericin B course (FIG. 9H)
Protocol: To further test the role of fungi in IL33 secretion and recruitment of ILC2 and TH2 cells in the PDAC TME, we evaluated the effect of Alternaria and Malassezia administered by gavage to PDAC tumor-bearing mice (FIG. 9G). First, fungi resident in the mice were depleted by a course of amphotericin B (i.e., 5 doses of amphotericin B, 200 μg/day by oral gavage), followed by a maintenance dose of 0.5 μg/ml in the drinking water for […]. Following depletion of fungi, we administered either Malassezia globosa or Alternaria alternata (10^8 fungal spores per mouse) by oral gavage into the tumor-bearing mice. At 28 days post-fungal treatment, the tumors were harvested for analyses. […] Intratumoral fungal depletion and repopulation were confirmed by fungal FISH analysis (FIG. 9H). Further, 18S rRNA sequencing confirmed increased presence of Alternaria and Malassezia sp. in the tumor and stool of the mouse receiving fungal transplantation (FIG. 9I, FIG. 10D-F). […] Similarly, Malassezia globosa or Alternaria alternata administration augmented the infiltration of ILC2 (FIG. 9K) and TH2 (FIG. 10G) cell populations within the TME. […]
Harvested tissues were immediately fixed in 10% formalin overnight and embedded in paraffin. […] Immunofluorescence slides were imaged with an Leica confocal Microscope and quantified with ImageJ. […]

[2] = system: ILC2 and TH2 cells in PDAC tumors; assay: Flow cytometry of tumor infiltrating type 2 immune cells after antifungal treatment; format: in vivo, C57BL/6 mice; details: oral amphotericin B
Protocol: as §1
For gastrointestinal fungal depletion, C57BL/6 mice were treated with 200 μg amphotericin B per day by oral gavage for five consecutive days, followed by 0.5 μg/ml amphotericin B treatment in drinking water for 21 days. Control groups were gavaged with 200 μl PBS for 5 consecutive days. After completion of antifungal treatment, species specific fungal repopulation was done with Alternaria alternata (ATCC 36376) and Malassezia globosa (MYA-4889). Fungi were administered (1×10^8 CFU/ml) by oral gavage. […]

Nc1cc(C(F)(F)F)c(-c2cc(N3CCOCC3)nc(N3CCOCC3)n2)cn1 [Buparlisib]
IL33 expression (western blot) (IL33 expression): did not lead to a reduction in IL33 expression

CCn1c(-c2nonc2N)nc2c(C#CC(C)(C)O)ncc(OCC3CCCNC3)c21 (stereo not drawn) [GSK-690696]
IL33 expression (western blot) (IL33 expression): did not lead to a reduction in IL33 expression

O=C(NOCC1CC1)c1ccc(F)c(F)c1Nc1ccc(I)cc1Cl [CI-1040]
IL33 expression (western blot) (IL33 expression): complete inhibition of IL33 expression

C[C@@H]1[C@H](O)[C@@H](C)/C=C/C=C/C=C/C=C/C=C/C=C/C=C/[C@H](O[C@@H]2O[C@H](C)[C@@H](O)[C@H](N)[C@@H]2O)C[C@@H]2O[C@](O)(C[C@@H](O)C[C@@H](O)[C@H](O)CC[C@@H](O)C[C@@H](O)CC(=O)O[C@H]1C)C[C@H](O)[C@H]2C(=O)O [amphotericin B]
tumor burden (wet weight of PDAC tumors) ([1]; fungal depletion/repopulation experiment, 5 doses 200 μg/day by oral gavage, then 0.5 μg/ml in drinking water (FIG. 9J)): significantly decreased tumor burden
tumor burden ([1]; oral amphotericin B, orthotopic PDAC tumor-bearing mice (FIG. 9B-C, 10A)): decreased tumor burden
survival ([1]; oral amphotericin B, orthotopic PDAC tumor-bearing mice (FIG. 9D)): increased survival
IL33 localisation in PDAC tumors (IHC and IF) (IL33): IL33 signal restricted predominantly to the nucleus of cancer cells
tumor infiltrating ILC2 ([2]; relative to total CD45 positive cells (FIG. 9E)): reduced tumor infiltrating ILC2
tumor infiltrating TH2 cells ([2]; relative to total CD45 positive cells (FIG. 9F)): reduced

Reference: patent US20240401044A1, “EXPLOITING IL33 SECRETION AS A THERAPEUTIC TARGET IN CANCER” (ROSWELL PARK CANCER INSTITUTE CORPORATION HEALTH RESEARCH, …, priority 2021, published 2024)
